Test results from patent US10538571B2, “Compositions and methods for neurological diseases” (Coda Biotherapeutics, Inc., priority 2017, dated 2020).

Tests used:
[1] = biological target: T1, engineered chimeric LGIC receptor SEQ ID NO:33 (α7-nAChR ligand binding domain with GlyRα1 Cys-loop, GlyRα1 ion pore domain) (Homo sapiens, UniProt P36544, F159M/H163T/I152M/R155K/V154L/W156N/Y151P); assay: Two electrode voltage clamp currents in Xenopus oocytes expressing the receptor; type: cell-based; conditions: Xenopus oocytes; FIG. 5
T1 construct: expressed in transfected cells; host or cells: Xenopus oocytes (cDNA injection)
T1 sequence (P36544 with tags, fused parts or gaps Y151P/I152M/V154L/R155K/W156N/F159M/H163T): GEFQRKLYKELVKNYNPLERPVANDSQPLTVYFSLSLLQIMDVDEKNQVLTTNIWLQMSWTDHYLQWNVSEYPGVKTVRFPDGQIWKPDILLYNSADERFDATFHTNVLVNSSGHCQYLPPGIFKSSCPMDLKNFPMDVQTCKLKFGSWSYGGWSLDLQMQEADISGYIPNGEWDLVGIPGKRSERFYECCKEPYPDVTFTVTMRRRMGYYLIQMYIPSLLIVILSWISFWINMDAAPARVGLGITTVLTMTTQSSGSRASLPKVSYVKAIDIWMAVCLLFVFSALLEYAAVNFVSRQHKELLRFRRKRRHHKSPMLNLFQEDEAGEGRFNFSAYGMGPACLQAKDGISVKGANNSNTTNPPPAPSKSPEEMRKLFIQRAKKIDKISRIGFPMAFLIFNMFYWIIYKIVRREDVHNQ
Method: (§1) For Xenopus oocyte studies, injections of cDNAs encoding for ion channels at a final concentration of 0.04 μg/μL were performed using a proprietary automated injection device and receptor expression examined at least two days later. Oocytes were poked with two electrodes and their membrane potential maintained at −80 mV throughout the experiment. All recordings were performed at 18° C. and cells were superfused with OR2 medium containing in mM: NaCl 82.5, KCl 2.5, HEPES 5, CaCl2.2H2O 1.8, MgCl2.6H2O 1, pH 7.4. Recordings progressed if oocytes had sufficiently low holding current, in which case they were then subjected to ligand or test compound application (5-10 s wash intervals), with 100 s of wash in between doses. Currents evoked by acetylcholine or other agonists were recorded using an automated process equipped with standard two electrode voltage clamp configuration (TEVC). Data were captured and analyzed using HiQScreen proprietary data acquisition and analysis software running under Matlab (Mathworks Inc.). Acetylcholine was prepared as a concentrated stock solution (10-1 M) in water and then diluted in the recording medium to obtain the desired test concentration. Nicotine was diluted in water as stock solution (10-1 M), kept frozen and diluted immediately prior to the experiment at the desired concentration. Compounds were prepared as stock solution (10-1M) in OR2 and then diluted in the recording medium to obtain the desired test concentration. Stock solution for Compound-1 was made in OR2 at pH 5 adjusted with HCl. To assess that dilution at the final concentration of this stock solution introduced no significant changes, the pH of the final solution was confirmed using a colorimetric assay (Galietta L. J. V., et al. 2001. FEBS Letters 499: 220-224. Kruger W., et al. (2005). Neuroscience Letters 380: 340-345.)
(§2) To better understand the impact of the heterologous domains that had been inserted into the channels, the ligand-dependent response profiles of wild type α7-nAChR and various engineered chimeric LGIC receptors to acetylcholine as well as to non-native ligands TC-6987, AZD-0328, and Facinicline/RG3487 were assessed. Receptors were transiently expressed in […] cells and currents were measured on an automated patch clamp system (Fluxion Biosciences) following 1 second addition of drug. Inclusion of a GlyRα1 Cys-loop sequence in the extracellular domain increased the potency of all small molecules on the engineered receptor (leftward shift in EC50) (e.g. SEQ ID NO:35, FIG. 4C vs SEQ ID NO:16, FIG. 4B). […] Inclusion of both the Cys-loop and β1-β2 loop sequences of GlyRα1 in the extracellular domain reduced the sensitivity by about 1 log from that observed with the full Cys-loop sequence alone, but further increased conductance approximately 2-fold and slowed the rate of deactivation of the channel (SEQ ID NO:41, FIG. 4E vs. SEQ ID NO:33, FIG. 4D).

[2] = biological target: T2, engineered chimeric LGIC receptor SEQ ID NO:41 (as SEQ ID NO:33, further comprising the β1-β2 loop domain from GlyRα1) (Homo sapiens, UniProt P36544, F159M/H163T/I152M/K68T/N69T/Q70M/R155K/V154L/W156N/Y151P); assay: as above; type: cell-based; conditions: FIG. 5
T2 construct: expressed in transfected cells; host or cells: Xenopus oocytes (cDNA injection)
T2 sequence (P36544 with tags, fused parts or gaps K68T/N69T/Q70M/Y151P/I152M/V154L/R155K/W156N/F159M/H163T): as the sequence (P36544 with tags, fused parts or gaps Y151P/I152M/V154L/R155K/W156N/F159M/H163T) above, with K46T, N47T, Q48M counted along it
Method: as §1, §2

[3] = system: spared nerve injury (SNI) model; assay: Spared nerve injury (SNI) model of neuropathic pain, mechanical withdrawal threshold (von Frey, up-down method) after AAV.hSYN-α7-nAChR/GlyRα1 injection; type: in vivo, rat; conditions: for reversal of mechanical hypersensitivity: single IP injection
Excerpt: Eight expression cassettes are constructed using standard molecular biology techniques. All contain a human synapsin-1 (hSYN) promoter linked to engineered chimeric receptors comprising a ligand binding domain of α7-nAChR and a Cys-loop domain and ion pore domain of GlyRα1. Their design is as follows:
These cassettes are subcloned into AAV bacmids, purified, transfected into Sf9 insect cells to produce recombinant bacuvlovirus, and then amplified. Sf9 cells are double infected using the amplified recombinant baculovirus containing the hSYN-α7-nAChR/GlyRα1 cassettes and another recombinant baculovirus containing the Rep and AAV6(Y705+731F+T492V) Cap genes to produce recombinant AAV vectors. The viral vectors are purified, viral titer determined using qPCR, and SDS-PAGE used to verify the purity of AAV vectors.
To produce mechanical hypersensitivity in a model that mimics a neuropathic pain condition, the spared nerve injury (SNI) model (a validated model of mechanical allodynia) is used (Shields et al., 2003, The Journal of Pain, 4, 465-470). This model is produced by the sectioning of the common peroneal and the sural nerves and isolating the tibial branch. Mechanical withdrawal threshold is assessed by placing rats on an elevated wire-mesh grid and stimulating the plantar surface of the hind paw with von Frey filaments.
A dorsal hemilaminectomy is made at the level of the lumbar enlargement to expose two segments (about 1.5-2 mm) of lumbar spinal cord, after which the dura mater is incised and reflected. The viral solution is loaded into a glass micropipette (prefilled with mineral oil). The micropipette is connected to a manual micro-injector mounted on a stereotactic apparatus. The viral solution is targeted to the dorsal horn (left side). Along the rostro-caudal axis within the exposed region, 6 injections of 240 nl each are performed, in an equidistant linear fashion. After each injection, 1 min of resting time is observed and then the muscle layer is sutured, the skin closed with staples, and the animals were allowed to recover with heated-pad before they were returned to their home cages. Animals are perfused for histological analysis after the last behavior test.
The injection is performed with a borosilicate glass capillary (0.78/1 mm internal/external diameters) pulled to a fine point, attached by polyethylene tubing (0.4/0.8 mm internal/external diameters) to a syringe mounted in a microinjection pump. The needle is mounted on an extended arm of a stereotaxic frame swung to the outside (used to hold and manipulate the needle only). Tubing, syringe, and needle are all filled with water. One microliter air is taken up into the needle followed by 3 μL of the viral vector solution. The needle is loaded separately with this volume for each injection. Animals are anesthetized prior to surgery. Following an incision along the dorsal midline, the L4 and L5 DRG are exposed by removal of the lateral processes of the vertebrae. The epineurium lying over the DRG is opened, and the glass needle inserted into the ganglion, to a depth of 400 μm from the surface of the exposed ganglion. After a 3-minute delay to allow sealing of the tissue around the glass capillary tip, 1.1 μL virus solution was injected at a rate of 0.2 μL/minute. After a further delay of 2 minutes, the needle is removed. The L4 ganglion is injected first followed by the L5 ganglion. The muscles overlying the spinal cord are loosely sutured together with a 5-0 suture and the wound closed. Animals are allowed to recover at 37° C. and received postoperative analgesia.
Rats are first anesthetized and then placed vertically with their head fixed in a stereotaxic frame. An incision is made in the base of the neck to expose the groove in the nuchal crest. An incision is made (1-2 mm) in the cisternal membrane to a depth such that cerebrospinal fluid leaks out. […]

c1cnc2c(c1)C[C@@]1(CN3CCC1CC3)O2 [AZD-0328]
fold more sensitive than wild type α7-nAChR [1]: approximately 3 fold | sensitivity of SEQ ID NO:41 to ligand compared with wild type α7-nAChR [2]: comparably sensitive | duration of the reversal of mechanical hypersensitivity ([3]; after single IP injection): at least 2 days | effect on mechanical threshold in the absence of vector ([3]; contralateral side): no measurable effect | mechanical thresholds after second IP injection ([3]; injected again on the third day, followed for 48 hours): recovery to non-injury baseline thresholds | reversal of mechanical hypersensitivity ([3]; high dose of ligand, all rats (Chimera 1-8)): complete reversal | reversal of mechanical hypersensitivity ([3]; low dose, rats receiving Chimera 1, 2, 4, 5, 6 and 8): complete reversal | reversal of mechanical hypersensitivity ([3]; low dose, rats receiving Chimera 3 and 7): partial reversal
